From patent publication US20250313574A1, “SIALIC ACID DERIVATIVES AND METHODS OF USING SAME” (EISAI R&D MANAGEMENT CO., LTD., priority 2022, published 2025)

Key:
[1] = molecular target: Recombinant human CD33 protein (Homo sapiens (Human), UniProt P20138); experiment: CD33 competitive binding assay for HTS drug screen (fluorescent multivalent sialic acid probe)
In short: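 Inhibition was read as reduced retention of a fluorescent multivalent sialic acid complex (final 5 μM neutravidin, 15 μM A-375, 5 μM biotin-4-FITC) on plate-immobilized human CD33. Compound was added first, the probe followed for 30 min at room temperature in PBS with 0.2% Tween-20 and 0.5% BSA, and FITC was measured after a wash.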

[2] = molecular target: Recombinant Human Siglec-3/CD33 protein (His-CD33) (Homo sapiens (Human), UniProt P20138); experiment: Differential scanning fluorimetry (DSF) thermal shift assay; type: binding
Recombinant Human Siglec-3/CD33 protein (His-CD33), sequence (P20138 18-259): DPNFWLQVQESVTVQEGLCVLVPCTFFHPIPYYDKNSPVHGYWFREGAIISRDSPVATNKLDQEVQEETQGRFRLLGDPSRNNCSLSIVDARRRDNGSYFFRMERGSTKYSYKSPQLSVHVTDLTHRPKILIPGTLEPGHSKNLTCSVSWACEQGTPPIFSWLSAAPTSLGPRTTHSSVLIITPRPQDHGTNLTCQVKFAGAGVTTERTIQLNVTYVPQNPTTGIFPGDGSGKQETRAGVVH

[3] = difference in thermal melt of CD33 protein (0.5 μM) with 50 μM compound
[4] = thermal melt shift of 0.5 μM CD33 protein with 50 μM compound

Recombinant human CD33 protein, sequence (P20138 18-259): as above

SMILES | EC50 [1] [µM] | DSF (dTmD) [2, 3] [°C] | DSF (dTmD) [2, 4]
CC(=O)N[C@H]1[C@H]([C@H](O)[C@H](O)CNC(=O)c2cc(C)c(O)c(C)c2)O[C@@](C/C=C/c2cccc(CNC(=O)c3ccc4[nH]c(-c5cccn5-c5ncccn5)nc4c3)c2)(C(=O)O)C[C@@H]1O [A-252] | 0.578 | 7.6 | –
CC(=O)N[C@H]1[C@H]([C@H](O)[C@H](O)CNC(=O)c2ccc3c(=O)n(C)cnc3c2)O[C@@](CCN2CCOC[C@@]23CCN(C(=O)OC(C)(C)C)C3)(C(=O)O)C[C@@H]1O [A-138] | 0.6 | – | 6.6
Cc1ccc(CN(C)C(=O)C2CCCOC2)cc1/C=C/C[C@]1(C(=O)O)C[C@H](O)[C@@H](NC(=O)Cn2cc(C3CCCCC3)nn2)[C@H]([C@H](O)[C@H](O)CNC(=O)c2cc(C)c(O)c(C)c2)O1 (stereo partly drawn) [A-287] | 1.16 | 6.0 | –
CC(=O)N[C@H]1[C@H]([C@H](O)[C@H](O)CNC(=O)c2cc(C)c(O)c(C)c2)O[C@@](CCN2CCOC[C@@]23CCN(C(=S)NC2CCCCC2)C3)(C(=O)O)C[C@@H]1O [A-052] | 0.066 | – | 9.9
Cc1cc(C(=O)NC[C@@H](O)[C@@H](O)[C@@H]2O[C@@](OC3CCCCC3NC(=O)CN(C)C(=O)OCc3cccc(C(=O)NC4CC4)c3)(C(=O)O)C[C@H](O)[C@H]2NC(=O)Cn2cc(C3CCCCC3)nn2)cc(C)c1O (stereo partly drawn) [A-326] | 13.6 | 4.0 | –
CC(=O)N[C@H]1[C@H]2O[C@](C(=O)O)(C/C=C/COC[C@@H](NC(=O)[C@H]3CCCOC3)COCCCOc3c(C)cc(cc3C)C(=O)NC[C@@H](O)[C@H]2O)C[C@@H]1O [A-337] | 14.1 | 2.2 | –
CC(=O)N[C@H]1[C@H]([C@H](O)[C@H](O)CNC(=O)c2cc(C)c(O)c(C)c2)O[C@@](C[C@H]2COCC3(CCN(C(=O)OC(C)(C)C)CC3)N2)(C(=O)O)C[C@@H]1O [A-231] | 1.41 | 5.2 | –
Cc1cc(C(=O)NC[C@@H](O)[C@@H](O)[C@@H]2O[C@@](C/C=C/c3cccc(CNC(=O)c4ccccc4C(F)(F)F)c3)(C(=O)O)C[C@H](O)[C@H]2NC(=O)Cn2cc(C3CCCCC3)nn2)cc(C)c1O [A-269] | 3.46 | 6.5 | –
CC(=O)N[C@H]1[C@H]([C@H](O)[C@H](O)CNC(=O)c2cc(C)c(O)c(C)c2)O[C@@](CCN2CCOC[C@]23CCN(C(=O)OC(C)(C)C)C3)(C(=O)O)C[C@@H]1O [A-003] | 1.14 | – | 5.12
CC(=O)N[C@H]1[C@H]([C@H](O)[C@H](O)CNC(=O)c2cc(C)c(O)c(C)c2)O[C@@](CCN2CCOC[C@@]23CCN(C(=O)OC(C)(C)C)C3)(C(=O)NS(=O)(=O)c2ccccc2)C[C@@H]1O [A-368] | 15 | −0.1 | –
CC(=O)N[C@H]1[C@H]([C@H](O)[C@H](O)CNC(=O)c2cc(C)c(O)c(C)c2)O[C@@](CCN2CCOC[C@@]23CCN(C(=O)C2CCCCC2(F)F)C3)(C(=O)O)C[C@@H]1O (stereo partly drawn) [A-070] | 0.031 | – | 12.0
CC(=O)N[C@H]1[C@H]([C@H](O)[C@H](O)CNC(=O)c2cc(C)c(O)c(C)c2)O[C@@](CC2OC(C)(C)O[C@H]2c2cccc(C(=O)NCc3ccccc3)c2)(C(=O)O)C[C@@H]1O (stereo partly drawn) [A-311] | 6.36 | 0.5 | –
CC(=O)N[C@H]1[C@H]([C@H](O)[C@H](O)CNC(=O)c2cc(F)c(F)c(F)c2)O[C@@](CCN2CCOC[C@@]23CCN(C(=O)OC(C)(C)C)C3)(C(=O)O)C[C@@H]1O [A-185] | 3.6 | – | 5.0
CC(=O)N[C@H]1[C@H]([C@H](O)[C@H](O)CNC(=O)c2cc(C(F)(F)F)cc(C(F)(F)F)c2)O[C@@](CCN2CCOC[C@@]23CCN(C(=O)OC(C)(C)C)C3)(C(=O)O)C[C@@H]1O [A-168] | 1.97 | – | 8.3
CC(=O)N[C@H]1[C@H]([C@H](O)[C@H](O)CNC(=O)c2ccc3[nH]cc(C)c3c2)O[C@@](CCN2CCOC[C@@]23CCN(C(=O)OC(C)(C)C)C3)(C(=O)O)C[C@@H]1O [A-112] | 0.022 | – | 12.5
CC(=O)N1CCC(C(=O)NCc2cccc(/C=C/C[C@]3(C(=O)O)C[C@H](O)[C@@H](NC(=O)Cn4cc(C5CCCCC5)nn4)[C@H]([C@H](O)[C@H](O)CNC(=O)c4cc(C)c(O)c(C)c4)O3)c2)CC1 [A-266] | 1.38 | 6.2 | –
CC(=O)NC1[C@H]([C@H](O)[C@H](O)CNC(=O)c2cc(C)c(O)c(C)c2)O[C@@](CC(=O)N2CCOC[C@@]23CCN(C(=O)OC(C)(C)C)C3)(C(=O)O)C[C@@H]1O (stereo partly drawn) [A-221] | 0.162 | 7.0 | –

SMILES | EC50 [1] [µM] | DSF (dTmD) [2, 3] [°C] | DSF (dTmD) [2, 4]
CC(=O)N[C@H]1[C@H]([C@H](O)[C@H](O)CNC(=O)c2ccc3[nH]ccc3c2)O[C@@](CCN2CCOC[C@@]23CCN(C(=O)OC(C)(C)C)C3)(C(=O)O)C[C@@H]1O [A-129] | 0.01 | – | 15.0
CC(=O)N[C@H]1[C@H]([C@H](O)[C@H](O)CNC(=O)c2cc(C)c(O)c(C)c2)O[C@@](CC2OC(C)(C)O[C@@H]2c2cccc(C(=O)NCc3ccccc3)c2)(C(=O)O)C[C@@H]1O (stereo partly drawn) [A-312] | 0.159 | 4.5 | –
CC(=O)N[C@H]1[C@H]([C@H](O)[C@H](O)CNC(=O)c2cc(C)c(OCCN)c(C)c2)O[C@@](CCN2CCCC[C@@]23CCN(C(=O)OC(C)(C)C)C3)(C(=O)O)C[C@@H]1O [A-027] | 0.064 | – | 10.4
CC(=O)N[C@H]1[C@H]2O[C@](C(=O)O)(C/C=C/c3cccc(c3)[C@@H](NC(=O)C3CCCOC3)CCCc3cc(cc(Cl)c3O)C(=O)NC[C@@H](O)[C@H]2O)C[C@@H]1O (stereo partly drawn) [A-352] | 94 | 0.7 | –
Cc1cc(C(=O)NC[C@@H](O)[C@@H](O)[C@@H]2O[C@@](OC3CCCCC3NC(=O)CNC(=O)CC3CCOCC3)(C(=O)O)C[C@H](O)[C@H]2NC(=O)Cn2cc(C3CCCCC3)nn2)cc(C)c1O (stereo partly drawn) [A-328] | 12.3 | 1.4 | –
CC(=O)N[C@H]1[C@H]([C@H](O)[C@H](O)CNC(=O)c2cc(C)c(O)c(C)c2)O[C@@](CCN2CCOC[C@@]23CCN(C(=O)OC(C)(C)C)C3)(C(=O)NS(=O)(=O)C(F)(F)F)C[C@@H]1O [A-367] | > 100 | 0.1 | –
CC(=O)N[C@H]1[C@H]([C@H](O)[C@H](O)CNC(=O)c2ccc(C)c(C(F)(F)F)c2)O[C@@](CCN2CCOC[C@@]23CCN(C(=O)OC(C)(C)C)C3)(C(=O)O)C[C@@H]1O [A-145] | 0.61 | – | 9.6
CC(=O)N[C@H]1[C@H]([C@H](O)[C@H](O)CNC(=O)c2cc(C)c(O)c(C)c2)O[C@@](C[C@H]2COC[C@@]3(CCN(C(=O)NC(C)(C)C)C3)N2)(C(=O)O)C[C@@H]1O [A-228] | 0.014 | 13.4 | –
CC(=O)N[C@H]1[C@H]([C@H](O)[C@H](O)CNC(=O)c2cc(C)c(O)c(C)c2)O[C@@](C/C=C/c2cccc(CNC(=O)C3(C)COC3)c2)(C(=O)O)C[C@@H]1O [A-244] | 9.56 | 0.8 | –
Cc1cc(C(=O)NC[C@@H](O)[C@@H](O)[C@@H]2O[C@@](C/C=C/c3cccc(CNC(=O)C4CCCC4)c3)(C(=O)O)C[C@H](O)[C@H]2NC(=O)Cn2cc(C3CCCCC3)nn2)cc(C)c1O [A-264] | 6.33 | 5.5 | –
CC(=O)N[C@H]1[C@H]2O[C@](C(=O)O)(C/C=C/CCC[C@@H](NC(=O)[C@@H]3CCCOC3)c3cccc(c3)COc3c(C)cc(cc3C)C(=O)NC[C@@H](O)[C@H]2O)C[C@@H]1O [A-354] | 27.5 | 1.5 | –
CC(=O)N[C@H]1[C@H]([C@H](O)[C@H](O)CNC(=O)c2ccc(-c3ncn[nH]3)cc2)O[C@@](CCN2CCOC[C@@]23CCN(C(=O)OC(C)(C)C)C3)(C(=O)O)C[C@@H]1O [A-142] | 0.34 | – | 6.4
Cc1cc(C(=O)NC[C@@H](O)[C@@H](O)[C@@H]2O[C@@](OC3CCCCC3NC(=O)Cn3cc(CNC(=O)N4CCOCC4)nn3)(C(=O)O)C[C@H](O)[C@H]2NC(=O)Cn2cc(C3CCCCC3)nn2)cc(C)c1O (stereo partly drawn) [A-334] | 7.7 | 2.8 | –
CC(=O)N[C@H]1[C@H]([C@H](O)[C@H](O)CNC(=O)c2cc(C)c3[nH]ccc3c2)O[C@@](CCN2CCOC[C@@]23CCN(C(=O)OC(C)(C)C)C3)(C(=O)O)C[C@@H]1O [A-109] | 0.006 | – | 16.6
CC(=O)N[C@H]1[C@H]([C@H](O)[C@H](O)CNC(=O)c2cc(C)c(O)c(C)c2)O[C@@](CCN2CCN(C(C)=O)C[C@@]23CCN(C(=O)OC(C)(C)C)C3)(C(=O)O)C[C@@H]1O [A-014] | 0.019 | – | 12.3
CC(=O)N[C@H]1[C@H]([C@H](O)[C@H](O)CNC(=O)c2cc(C)c(O)c(C)c2)O[C@@](C/C=C/C2(C)CCN(C(=O)OC(C)(C)C)C2)(C(=O)O)C[C@@H]1O (stereo partly drawn) [A-195] | 0.042 | – | 10.8
